The target in series [1] is T1, Tripartite terminase subunit 3 (Human betaherpesvirus 5, UniProt P16732).
T1 sequence (P16732 whole entry): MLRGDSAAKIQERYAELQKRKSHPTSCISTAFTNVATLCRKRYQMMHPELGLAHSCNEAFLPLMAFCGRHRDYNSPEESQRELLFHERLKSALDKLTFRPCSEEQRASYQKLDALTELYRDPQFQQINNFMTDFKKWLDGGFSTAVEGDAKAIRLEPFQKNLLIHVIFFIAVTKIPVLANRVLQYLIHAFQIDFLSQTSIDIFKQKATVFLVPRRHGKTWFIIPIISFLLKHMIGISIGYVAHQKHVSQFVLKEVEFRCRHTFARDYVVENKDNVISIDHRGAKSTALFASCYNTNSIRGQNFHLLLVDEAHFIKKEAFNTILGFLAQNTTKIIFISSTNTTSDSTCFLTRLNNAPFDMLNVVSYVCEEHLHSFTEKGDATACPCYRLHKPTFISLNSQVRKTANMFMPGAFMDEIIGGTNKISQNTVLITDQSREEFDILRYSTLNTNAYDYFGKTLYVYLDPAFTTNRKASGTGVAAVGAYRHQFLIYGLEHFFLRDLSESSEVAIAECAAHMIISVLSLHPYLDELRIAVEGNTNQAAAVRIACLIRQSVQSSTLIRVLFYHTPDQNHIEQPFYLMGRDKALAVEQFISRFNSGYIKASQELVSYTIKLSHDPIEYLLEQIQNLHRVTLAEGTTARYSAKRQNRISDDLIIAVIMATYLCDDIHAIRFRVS

Series [2] is described as follows: Aqueous solubility of the compound in DPBS at pH 7.2 incubated for 72 hrs by LC-MS/MS analysis. Type of series: physicochemical.
For series [3] the following is noted: human, plasma, 24 h.
Series [4] can be described thus: Stability of compound in CD-1 mouse plasma as compound remaining measured for 6 hrs by LC-MS/MS analysis. Format: ADME, cell-free. The note with it: read-out: Stability.
The next series has as its system HFF. In words: Cytotoxicity against HFF cells assessed as cell viability incubated for 168 hrs by MTS-based Cell Titer assay. Type of series: toxicity. The settings on record: human.
For series [5] the following is noted: mouse, plasma, 24 h.
Series [6] in a line: Stability of compound in human plasma as compound remaining measured for 6 hrs by LC-MS/MS analysis. The settings on record: read-out: Stability. Type of series: ADME, cell-free.
The conditions of series [7]: human, microsomes, 1 h.
Description: Stability in human liver microsomes assessed as half life measured upto 60 mins in presence of NADPH by LC-MS/MS analysis
The conditions of series [8]: mouse, microsomes, 1 h.
Description: Stability in mouse liver microsomes assessed as half life measured upto 60 mins in presence of NADPH by LC-MS/MS analysis
A short description of series [9]: Apparent permeability coefficient of the compound incubated for 5 hrs by LC-MS/MS analysis based PAMPA method. Type of series: ADME. A general note: In PAMPA a lipid-coated filter parts donor from acceptor wells.

≈ marks a conversion by molar mass, not a printed value.

Consider `O=C(O)c1nc(-c2ccsc2)nc(O)c1O`, for which the IC50 in series [1] was 2700 nM. Same read-out and setting: in the case of `O=C(O)c1nc(Cc2ccc(F)cc2)[nH]c(=O)c1O` it was 740 nM. In series [2], `O=C(O)c1nc(-c2cccs2)nc(O)c1O` showed a solubility (thermodynamic) at 72 h of 1480 µM (≈ 352 µg/mL). In addition, the t1/2 in series [3] is > 24 h; in series [5], > 24 h; in series [7] it was > 120 h; in [8], > 120 h. The remaining at 6 h in series [4] and in series [6] was > 94% each time. Moreover, the CC50 in the series with HFF is > 100000 nM.

With `COC(=O)c1nc(-c2cccs2)nc(O)c1O`, in series [1], the IC50 was found to be 880 nM. In addition, in series [9], the permeability is 0.9 10^-6 cm/s. As for `O=C(NCc1ccc(F)cc1)c1nc(-c2cccs2)nc(O)c1O`, inhibition in [1] was half-maximal at 700 nM (IC50).

In turn, `O=C(NCc1ccc(Cl)cc1)c1nc(-c2cccs2)nc(O)c1O` returned an IC50 in [1] of 1300 nM. On the same count and under the same terms, to `Cc1ccc(CNC(=O)c2nc(-c3cccs3)nc(O)c2O)cc1` belongs 1900 nM; to `COC(=O)c1nc(-c2ccccc2)[nH]c(=O)c1O`, 1100 nM. Still for that read-out and setting: in the case of `Cc1ccsc1-c1nc(O)c(O)c(C(=O)O)n1` it was 1400 nM. Still for that read-out and setting: to `Cc1nc(C(=O)O)c(O)c(=O)[nH]1` belongs 2100 nM; to `COC(=O)c1nc(-c2ccc(F)cc2)[nH]c(=O)c1O`, 860 nM; to `O=C(O)c1nc(Cc2ccsc2)[nH]c(=O)c1O`, 2400 nM. `COC(=O)c1nc(Cc2ccc(Cl)c(Cl)c2)[nH]c(=O)c1O` came in with an IC50 in [1] of 2100 nM. Moreover, in [9], the permeability is recorded as 3.1 10^-6 cm/s. The matching figures for `Cc1ccc(Cc2nc(C(=O)O)c(O)c(=O)[nH]2)cc1`: 920 nM and 0.07 10^-6 cm/s. As to `COC(=O)c1nc(Cc2ccc(Cl)cc2Cl)[nH]c(=O)c1O`, in [1], the IC50 was found to be 5700 nM.

In series [1], `O=C(O)c1nc(-c2ccc(F)cc2)[nH]c(=O)c1O` yielded an IC50 of 540 nM. Compared with the last molecule, the IC50 is about 11-fold lower.

Turning to `COC(=O)c1nc(-c2ccco2)[nH]c(=O)c1O`, in [1], the IC50 came out at 3000 nM. Same read-out and setting: in the case of `Cc1nc(C(=O)NCc2ccc(Cl)c(Cl)c2)c(O)c(=O)[nH]1` it was 2800 nM. Regarding `O=C(O)c1nc(-c2ccc(-c3ccccc3)cc2)[nH]c(=O)c1O`, the midpoint of inhibition in series [1], the IC50, lay at 1500 nM. Besides, the permeability in [9] is 0.06 10^-6 cm/s. As to `O=C(NCc1ccc(F)c(F)c1)c1nc(-c2cccs2)[nH]c(=O)c1O`, the IC50 in [1] worked out at 790 nM. On the same count and under the same terms, in the case of `O=C(O)c1nc(Cc2ccc(F)c(F)c2)[nH]c(=O)c1O` it was 870 nM; in that of `O=C(NCc1ccc(C(F)(F)F)cc1)c1nc(-c2cccs2)[nH]c(=O)c1O`, 3000 nM.

The molecule `O=C(O)c1nc(Cc2ccc(Cl)cc2Cl)[nH]c(=O)c1O` displayed an IC50 in series [1] of 3800 nM. This IC50 and that of the molecule before are within 1.5-fold of each other. Molecule `O=C(O)c1nc(Cc2cccs2)[nH]c(=O)c1O` displayed an IC50 in series [1] of 1700 nM. The same measure, in the same setting: to `COC(=O)c1nc(Cc2ccc(F)cc2F)[nH]c(=O)c1O` belongs 760 nM; to `COC(=O)c1nc(-c2ccc(-c3ccccc3)cc2)[nH]c(=O)c1O`, 780 nM.

On to `COc1ccc(CNC(=O)c2nc(C)[nH]c(=O)c2O)cc1`, for which the IC50 in series [1] came out at 590 nM. For the same molecule, the permeability in series [9] is listed as 12.4 10^-6 cm/s. Take `O=C(O)c1nc(Cc2ccc(F)cc2F)[nH]c(=O)c1O`: the IC50 in series [1] is 1400 nM. `O=C(O)c1nc(Cc2ccc(Cl)c(Cl)c2)nc(O)c1O`: the IC50 in series [1] turned out to be 670 nM. The thermodynamic solubility at 72 h in series [2] was ≥ 3170 µM. The t1/2 in series [3] was > 24 h; in series [5] it was > 24 h; in [7], > 120 h; in [8] it was > 120 h. Moreover, the remaining at 6 h in series [4] and in series [6] was > 94% in each case. Besides, the permeability in [9] is 0.05 10^-6 cm/s.

The term IC50 denotes the concentration at which inhibition is half-maximal. Read a low IC50 as higher potency. Broadly, the thermodynamic solubility is solubility found after equilibrating the solid with the medium. A word on the CC50: it is the concentration that lowers cell viability or growth by half.

(Values after ChEMBL document CHEMBL5154836, “4,5-Dihydroxypyrimidine Methyl Carboxylates, Carboxylic Acids, and Carboxamides as Inhibitors of Human Cytomegalovirus pUL89 Endonuclease” (J Med Chem, 2022).)
